Measured values published in ChEMBL document CHEMBL1201862, “PubChem BioAssay data set” (2004).
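Assay format: 96-well plates, 48-hour exposure. GI50 is the concentration that inhibits growth by half.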 Active and inactive are the calls of the source. Cut-off read from the data, not from the text of the source: active = GI50 up to about 1.1 µM and inactive = higher.

Tests used:
Test in all cases: DTP human tumour cell line panel, 48 h
NCI-H23 = test system: NCI-H23
MOLT-4 = test system: MOLT-4
HCT-15 = test system: HCT-15
SF-295 = test system: SF-295
HOP-92 = test system: HOP-92
A549 = test system: A549
COLO 205 = test system: COLO 205
K562 = test system: K562
HL-60 = test system: HL-60
HT-29 = test system: HT-29
CCRF-CEM = test system: CCRF-CEM
UO-31 = test system: UO-31
OVCAR-4 = test system: OVCAR-4
LOX IMVI = test system: LOX IMVI
SN12C = test system: SN12C
HCC 2998 = test system: HCC 2998
SNB-75 = test system: SNB-75
EKVX = test system: EKVX
SF-539 = test system: SF-539
RXF 393 = test system: RXF 393

| Compound | GI50 (NCI-H23) | GI50 (MOLT-4) | GI50 (HCT-15) [µM] | GI50 (SF-295) | GI50 (HOP-92) | GI50 (A549) | GI50 (COLO 205) | GI50 (K562) | GI50 (HL-60) | GI50 (HT-29) | GI50 (CCRF-CEM) | GI50 (UO-31) | GI50 (OVCAR-4) | GI50 (LOX IMVI) | GI50 (SN12C) | GI50 (HCC 2998) | GI50 (SNB-75) | GI50 (EKVX) | GI50 (SF-539) | GI50 (RXF 393) |
| --- | --- | --- | --- | --- | --- | --- | --- | --- | --- | --- | --- | --- | --- | --- | --- | --- | --- | --- | --- | --- |
| CCP(=O)(CC)C(Cl)Cl | > 100 µM (inactive) | > 100 µM (inactive) | > 100 | > 100 µM (inactive) | > 100 µM (inactive) | > 100 µM (inactive) | > 100 µM (inactive) | > 100 µM (inactive) | > 100 µM (inactive) | > 100 µM (inactive) | > 100 µM (inactive) | > 100 µM (inactive) | > 100 µM (inactive) | > 100 µM (inactive) | > 100 µM (inactive) | > 100 µM (inactive) | > 100 µM (inactive) |  |  |  |
| COP(=O)(OC)C(Cc1cn(C(C)=O)c2ccccc12)C(=O)O (centres undefined) | > 100 µM (inactive) | > 100 µM (inactive) | > 100 | > 100 µM (inactive) | 65.5 µM (inactive) | > 100 µM (inactive) | > 100 µM (inactive) | > 100 µM (inactive) | > 100 µM (inactive) | > 100 µM (inactive) | > 100 µM (inactive) | > 100 µM (inactive) | > 100 µM (inactive) | > 100 µM (inactive) | > 100 µM (inactive) | > 100 µM (inactive) | > 100 µM (inactive) |  |  |  |
| CCOC(=O)c1ccc(N[C@@H]2c3cc4c(cc3C(c3cc(OC)c(O)c(OC)c3)[C@H]3C(=O)OCC32)OCO4)cc1 (some centres undefined) | 0.339 µM (active) | 0.0142 µM (active) | 0.379 |  | 1.1 µM (active) | 0.0413 µM (active) | 3.15 µM (inactive) |  | 0.0912 µM (active) | 1.94 µM (inactive) | 0.0818 µM (active) | 0.769 µM (active) | 4.21 µM (inactive) |  | 0.396 µM (active) | 1.22 µM (inactive) | 1.21 µM (inactive) | 1.77 µM (inactive) | 0.421 µM (active) |  |
| CCCCOP1(=O)C=CC(Cl)=C(C)C1 (centres undefined) | > 10 µM (inactive) | 3.83 µM (inactive) | 13.1 | 18.2 µM (inactive) | 23.2 µM (inactive) | > 100 µM (inactive) | 33 µM (inactive) | 3.28 µM (inactive) | 16.1 µM (inactive) | 22 µM (inactive) | 4.11 µM (inactive) | 41.8 µM (inactive) | 25.2 µM (inactive) |  | 20 µM (inactive) | > 10 µM (inactive) | 23.3 µM (inactive) | 70.3 µM (inactive) | 18.5 µM (inactive) |  |
| C/C([O-])=C(/c1nc(-c2ccc([N+](=O)[O-])o2)no1)[n+]1cc(C)ccc1C | 12.1 µM (inactive) | > 100 µM (inactive) | 7.03 | 11.7 µM (inactive) | > 100 µM (inactive) | 15 µM (inactive) | 6.08 µM (inactive) | 0.692 µM (active) |  | 9.79 µM (inactive) | 1.53 µM (inactive) | 21.7 µM (inactive) | 25.1 µM (inactive) | 5.94 µM (inactive) | 13.6 µM (inactive) | 13 µM (inactive) | 17.8 µM (inactive) | 58.6 µM (inactive) | 4.99 µM (inactive) | 18.7 µM (inactive) |
| COC(=O)C1=COC2OC3/C(=C\c4ccc(O)c(OC)c4)C(=O)OC34C=CC1C24 (centres undefined) | 17.7 µM (inactive) | 31.2 µM (inactive) | 14.6 | 17.2 µM (inactive) | 22.5 µM (inactive) | 17.1 µM (inactive) | 20.1 µM (inactive) | 15.5 µM (inactive) | 9.18 µM (inactive) | 19.2 µM (inactive) | 23.2 µM (inactive) | 14.4 µM (inactive) | 17.6 µM (inactive) |  | 17.8 µM (inactive) | 10.8 µM (inactive) | 11.7 µM (inactive) |  | 17.4 µM (inactive) |  |
